The values below come from patent US20090105221A1, “MUSCARINIC RECEPTOR ANTAGONISTS” (RANBAXY LABORATORIES LIMITED, priority 2004, published 2009).

With `O=C(NCC1C2CCC1CNC2)C(O)(c1ccccc1)c1ccccc1` (stereo not shown), the melting point was 85.2 °C.
